Measured values: patent US8299093B2, “Small molecule inhibitors of retroviral assembly and maturation” (New York Blood Center, Inc., priority 2008, dated 2012)
Read-outs that look alike come from different tables or passages of the source.

Assays:
HIV-1 = assay: Inhibition of HIV-1 infectivity (p24 ELISA) in MT-2 cells, laboratory-adapted HIV-1 strains; type: cell-based; conditions: Human immunodeficiency virus 1, MT2, 96 h, MT-2 cells, p24 ELISA day 4
Method: AZT was used as a positive control in the infectivity assays. In brief, 1×10^4 MT-2 cells (lymphocytes) were infected with HIV-1 at 100 TCID50 (50% tissue culture infective dose, 0.01 MOI [multiplicity of infection]) in 200 μL RPMI 1640 medium containing 10% FBS in the presence or absence of small molecules at graded concentrations overnight. The culture supernatants were then removed and fresh media containing freshly prepared test compounds were added. On the fourth day post-infection, 100 μL of culture supernatants were collected from each well, mixed with equal volume of 5% TRITON X-100® and tested for p24 antigen by ELISA®.

[1] = XTT cytotoxicity assay in MT-2 cells; type: cell-based; conditions: human, cell type not given
Method: Briefly, for MT-2 cells, 100 μL of small molecule at graded concentrations was added to an equal volume of cells (5×10^4 cells/ml) in 96-well plates followed by incubation at 37° C. for 4 days, which ran parallel to the neutralization assay in MT-2 (except medium was added instead of virus). In the case of PBMC, 2.5×10^5 cells/mL were used and the cytotoxicity was measured after 7 days. After addition of XTT (PolySciences, Inc.), the soluble intracellular formazan was quantitated calorimetrically at 450 nm 4 hours later with a reference at 620 nm. The CC50 values were calculated.

[2] = read-out: IC50 (concentration that provides 50% inhibition of HIV-1 p24), Table 1, formula I
[3] = Table 1, formula I, read-out: CC50 (concentration that causes 50% cytotoxicity)
[4] = Table 2, formula II, read-out: CC50

## Cc1cccc2cc(CN(Cc3ccco3)C(=O)c3ccc(F)cc3)c(=O)[nH]c12 [NYAD-S33]
HIV-1; [2]
  IC50: > 10 µM
[1]; [3]
  CC50: > 10 µM

## Cc1ccc2cc(CN(Cc3ccco3)C(=O)c3ccccc3F)c(=O)[nH]c2c1 [NYAD-S34]
HIV-1; [2]
  IC50: > 10 µM
[1]; [3]
  CC50: > 10 µM

## Cc1cccc2cc(CN(Cc3ccccc3)C(=O)c3cccc(Cl)c3)c(=O)[nH]c12 [NYAD-S35]
HIV-1; [2]
  IC50: > 10 µM
[1]; [3]
  CC50: > 10 µM

## Cc1ccc2[nH]c(=O)c(CN(Cc3ccco3)C(=O)c3ccc(Br)cc3)cc2c1 [NYAD-S36]
HIV-1; [2]
  IC50: < 10 µM
[1]; [3]
  CC50: > 10 µM

## Cc1ccc2[nH]c(=O)c(CN(Cc3ccccc3)C(=O)c3ccco3)cc2c1 [NYAD-S37]
HIV-1; [2]
  IC50: < 10 µM
[1]; [3]
  CC50: > 10 µM

## Cc1cccc(C(=O)N(Cc2ccco2)Cc2cc3ccc(C)cc3[nH]c2=O)c1 [NYAD-S40]
HIV-1; [2]
  IC50: > 10 µM
[1]; [3]
  CC50: > 10 µM

## COc1ccc(C(=O)N(Cc2ccco2)Cc2cc3cc(C)ccc3[nH]c2=O)cc1OC [NYAD-S41]
HIV-1; [2]
  IC50: > 10 µM
[1]; [3]
  CC50: > 10 µM

## Cc1ccc2[nH]c(=O)c(CN(CC3CCCO3)C(=O)c3ccco3)cc2c1 (stereo not shown) [NYAD-S42]
HIV-1; [2]
  IC50: > 10 µM
[1]; [3]
  CC50: > 10 µM

## Cc1cc2cc(CN(Cc3ccco3)C(=O)C3CCCCC3)c(=O)[nH]c2cc1C [NYAD-S43]
HIV-1; [2]
  IC50: > 10 µM
[1]; [3]
  CC50: > 10 µM

## Cc1ccc2[nH]c(=O)c(CN(Cc3ccco3)C(=O)c3cccs3)cc2c1 [NYAD-S44]
HIV-1; [2]
  IC50: > 10 µM
[1]; [3]
  CC50: > 10 µM

## Cc1ccc2[nH]c(=O)c(CN(Cc3ccco3)C(=O)c3ccccc3)cc2c1 [NYAD-S45]
HIV-1; [2]
  IC50: < 10 µM
[1]; [3]
  CC50: > 10 µM

## Cc1ccc2[nH]c(=O)c(CN(Cc3cccnc3)C(=O)c3ccco3)cc2c1 [NYAD-S46]
HIV-1; [2]
  IC50: > 10 µM
[1]; [3]
  CC50: > 10 µM

## Cc1ccc2cc(CN(CC3CCCO3)C(=O)c3ccco3)c(=O)[nH]c2c1C (stereo not shown) [NYAD-S47]
HIV-1; [2]
  IC50: > 10 µM
[1]; [3]
  CC50: > 10 µM

## Cc1ccc2cc(CN(Cc3ccccc3)C(=O)c3ccco3)c(=O)[nH]c2c1C [NYAD-S48]
HIV-1; [2]
  IC50: > 10 µM
[1]; [3]
  CC50: > 10 µM

## Cc1ccc2[nH]c(=O)c(CN(Cc3ccco3)C(=O)c3ccccc3F)cc2c1 [NYAD-S49]
HIV-1; [2]
  IC50: > 10 µM
[1]; [3]
  CC50: > 10 µM

## Cc1cccc(C(=O)N(Cc2ccco2)Cc2cc3cc(C)ccc3[nH]c2=O)c1 [NYAD-S50]
HIV-1; [2]
  IC50: > 10 µM
[1]; [3]
  CC50: > 10 µM

## Cc1cccc2cc(CN(Cc3ccco3)C(=O)N3CCOCC3)c(=O)[nH]c12 [NYAD-S51]
HIV-1; [2]
  IC50: > 10 µM
[1]; [3]
  CC50: > 10 µM

## Cc1ccc(NCC(O)Cn2c3ccccc3n3c(=O)cc(C)c(C#N)c23)cc1 (stereo not shown) [NYAD-S52]
HIV-1; Table 2, formula II
  IC50: > 10 µM
[1]; [4]
  CC50: > 10 µM

## COc1ccc(NCC(O)Cn2c3ccccc3n3c(=O)cc(C)c(C#N)c23)cc1 (stereo not shown) [NYAD-S53]
HIV-1; Table 2, formula II
  IC50: > 10 µM
[1]; [4]
  CC50: > 10 µM

## CCC1CCCCN1CC(O)Cn1c2ccccc2n2c(=O)cc(C)c(C#N)c12 (stereo not shown) [NYAD-S54]
HIV-1; Table 2, formula II
  IC50: > 10 µM
[1]; [4]
  CC50: > 10 µM

## Cc1ccc(NCC(O)Cn2c3ccccc3n3c(=O)cc(C)c(C#N)c23)cc1C (stereo not shown) [NYAD-S55]
HIV-1; Table 2, formula II
  IC50: > 10 µM
[1]; [4]
  CC50: > 10 µM

## CCOc1ccc(NCC(O)Cn2c3ccccc3n3c(=O)cc(C)c(C#N)c23)cc1 (stereo not shown) [NYAD-S56]
HIV-1; Table 2, formula II
  IC50: > 10 µM
[1]; [4]
  CC50: > 10 µM

## Cc1ccc(NCC(O)Cn2c3ccccc3n3c(=O)cc(C)c(C#N)c23)cc1Cl (stereo not shown) [NYAD-S57]
HIV-1; Table 2, formula II
  IC50: > 10 µM
[1]; [4]
  CC50: > 10 µM

## Cc1cc(C)cc(NCC(O)Cn2c3ccccc3n3c(=O)cc(C)c(C#N)c23)c1 (stereo not shown) [NYAD-S58]
HIV-1; Table 2, formula II
  IC50: > 10 µM
[1]; [4]
  CC50: > 10 µM

## Cc1cc(=O)n2c3ccccc3n(CC(O)CNc3ccc(C(C)C)cc3)c2c1C#N (stereo not shown) [NYAD-S59]
HIV-1; Table 2, formula II
  IC50: < 10 µM
[1]; [4]
  CC50: < 10 µM

## CCc1ccc(NCC(O)Cn2c3ccccc3n3c(=O)cc(C)c(C#N)c23)cc1 (stereo not shown) [NYAD-S60]
HIV-1; Table 2, formula II
  IC50: > 10 µM
[1]; [4]
  CC50: < 10 µM

## COc1ccc2[nH]c(=O)c(CN(Cc3ccco3)C(=O)c3ccccc3C)cc2c1 [NYAD-S61]
HIV-1; [2]
  IC50: > 10 µM
[1]; [3]
  CC50: > 10 µM

## Cc1cc(=O)n2c3ccccc3n(CC(O)CCl)c2c1C#N (stereo not shown) [NYAD-S62]
HIV-1; Table 2, formula II
  IC50: > 10 µM
[1]; [4]
  CC50: > 10 µM

## Cc1cc(=O)n2c3ccccc3n(CC(O)CNc3ccc(Cl)cc3)c2c1C#N (stereo not shown) [NYAD-S63]
HIV-1; Table 2, formula II
  IC50: > 10 µM
[1]; [4]
  CC50: > 10 µM

## Cc1cc(=O)n2c3ccccc3n(CC(O)CN3CCC(C)CC3)c2c1C#N (stereo not shown) [NYAD-S64]
HIV-1; Table 2, formula II
  IC50: > 10 µM
[1]; [4]
  CC50: > 10 µM

## COc1cccc(NCC(O)Cn2c3ccccc3n3c(=O)cc(C)c(C#N)c23)c1 (stereo not shown) [NYAD-S65]
HIV-1; Table 2, formula II
  IC50: > 10 µM
[1]; [4]
  CC50: > 10 µM

## Cc1cc(C)c2[nH]c(=O)c(CN(Cc3ccco3)C(=O)c3ccccc3)cc2c1 [NYAD-S80]
HIV-1; [2]
  IC50: > 10 µM
[1]; [3]
  CC50: > 10 µM
